# “Also recorded” adds a separate entry of the source.
# Experiment: Stereochemical stability of separated isomers on standing in solution
# Assay type: physicochemical
# Conditions: after separation by chiral HPLC
# Experimental: has a chiral centre where indicated. This racemic mixture was separated using chiral preparative HPLC.
# This separation was carried out on a Rainin prep machine (200 ml heads) using a Merck 100 mm 20 μm Chiralpak AD column. The Eluent was a mixture of i-hexane, ethanol and methanol (70:15:15), which was flowed at a rate of 190 ml/min. The analaysis was carried out with a wavelength of 215 nm. Complete separation of the two isomers was achieved using a sample concentration of 12.5 mg/ml, an injection volumn of 40 ml and a run time of 3 hours.
smiles,measurement,value
"CC1C(=O)N(c2cc(Cc3n[nH]c(=O)c4ccccc34)ccc2F)C(=O)N1CCN1CCCC1 (racemic) [Compound 9, 3-(2-fluoro-5-((4-oxo-3,4-dihydrophthalazin-1-yl)methyl)phenyl)-5-methyl-1-(2-(pyrrolidin-1-yl)ethyl)imidazolidine-2,4-dione]",stereochemical stability in solution,epimerise on standing in solution; also recorded: racemises

# Source: patent US20080255128A1, “PHTHALAZINONE DERIVATIVES” (priority 2007, published 2008)
